Results from ChEMBL document CHEMBL3616395, “Discovery of 4-arylamido 3-methyl isoxazole derivatives as novel FMS kinase inhibitors” (Eur J Med Chem, 2015).
Calls of active or inactive are those of the source. The rule behind the calls is not given here.

How the values were obtained:
[1] = molecular target: Platelet-derived growth factor receptor alpha (Homo sapiens) (UniProt P16234); assay: Inhibition of PDGFRalpha (unknown origin) at 10 uM after 40 mins by scintillation counting analysis
[2] = molecular target: Serine/threonine-protein kinase PLK1 (Homo sapiens) (UniProt P53350); assay: Inhibition of PLK1 (unknown origin) at 10 uM after 40 mins by scintillation counting analysis
[3] = molecular target: Tyrosine-protein kinase SYK (Homo sapiens) (UniProt P43405); assay: Inhibition of SYK (unknown origin) at 10 uM after 40 mins by scintillation counting analysis
[4] = test system: Serine/threonine-protein kinase B-raf (Homo sapiens), P15056 [V600E]; assay: Inhibition of BRAF V599E mutant (unknown origin) at 10 uM after 40 mins by scintillation counting analysis
Serine/threonine-protein kinase B-raf (Homo sapiens), P15056 [V600E], sequence (P15056 whole entry V600E): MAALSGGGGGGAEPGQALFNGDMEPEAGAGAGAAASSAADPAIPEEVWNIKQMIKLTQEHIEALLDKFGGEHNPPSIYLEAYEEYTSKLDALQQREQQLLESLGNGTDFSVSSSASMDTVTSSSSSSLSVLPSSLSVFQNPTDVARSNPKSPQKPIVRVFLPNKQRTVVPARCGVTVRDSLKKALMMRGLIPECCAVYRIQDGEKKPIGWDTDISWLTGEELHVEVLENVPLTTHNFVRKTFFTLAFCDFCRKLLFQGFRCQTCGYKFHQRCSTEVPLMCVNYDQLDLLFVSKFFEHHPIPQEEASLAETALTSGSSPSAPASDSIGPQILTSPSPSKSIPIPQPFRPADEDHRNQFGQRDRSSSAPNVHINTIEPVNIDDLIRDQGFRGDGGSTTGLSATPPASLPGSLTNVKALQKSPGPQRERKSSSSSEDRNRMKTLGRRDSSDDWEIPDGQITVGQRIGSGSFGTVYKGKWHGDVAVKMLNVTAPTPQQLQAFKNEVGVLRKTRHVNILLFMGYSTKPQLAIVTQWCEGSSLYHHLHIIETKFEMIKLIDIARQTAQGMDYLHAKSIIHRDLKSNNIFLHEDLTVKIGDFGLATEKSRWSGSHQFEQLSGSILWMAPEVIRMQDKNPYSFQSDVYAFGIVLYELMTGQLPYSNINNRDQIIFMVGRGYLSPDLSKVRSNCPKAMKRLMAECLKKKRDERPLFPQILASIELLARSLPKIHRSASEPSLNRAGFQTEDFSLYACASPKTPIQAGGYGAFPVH

[5] = molecular target: Cyclin-dependent kinase 1/cyclin B (Homo sapiens) (UniProt P06493+P14635+Q8WWL7+O95067); assay: Inhibition of CDK1/cyclin B (unknown origin) at 10 uM after 40 mins by scintillation counting analysis; type: protein-complex assay
[6] = molecular target: ALK tyrosine kinase receptor (Homo sapiens) (UniProt Q9UM73); assay: Inhibition of ALK (unknown origin) at 10 uM after 40 mins by scintillation counting analysis
[7] = molecular target: Aurora kinase A (Homo sapiens) (UniProt O14965); assay: Inhibition of Aurora A (unknown origin) at 10 uM after 40 mins by scintillation counting analysis
[8] = molecular target: Tyrosine-protein kinase Lyn (Homo sapiens, UniProt P07948); assay: Inhibition of Lyn (unknown origin) at 10 uM after 40 mins by scintillation counting analysis
[9] = test system: U-937; assay: Antiproliferative activity against human U937 cells after 24 hrs by MTT assay; type: functional
[10] = molecular target: Epidermal growth factor receptor (Homo sapiens) (UniProt P00533); assay: Inhibition of EGFR (unknown origin) at 10 uM after 40 mins by scintillation counting analysis
Epidermal growth factor receptor (Homo sapiens), sequence (P00533 whole entry): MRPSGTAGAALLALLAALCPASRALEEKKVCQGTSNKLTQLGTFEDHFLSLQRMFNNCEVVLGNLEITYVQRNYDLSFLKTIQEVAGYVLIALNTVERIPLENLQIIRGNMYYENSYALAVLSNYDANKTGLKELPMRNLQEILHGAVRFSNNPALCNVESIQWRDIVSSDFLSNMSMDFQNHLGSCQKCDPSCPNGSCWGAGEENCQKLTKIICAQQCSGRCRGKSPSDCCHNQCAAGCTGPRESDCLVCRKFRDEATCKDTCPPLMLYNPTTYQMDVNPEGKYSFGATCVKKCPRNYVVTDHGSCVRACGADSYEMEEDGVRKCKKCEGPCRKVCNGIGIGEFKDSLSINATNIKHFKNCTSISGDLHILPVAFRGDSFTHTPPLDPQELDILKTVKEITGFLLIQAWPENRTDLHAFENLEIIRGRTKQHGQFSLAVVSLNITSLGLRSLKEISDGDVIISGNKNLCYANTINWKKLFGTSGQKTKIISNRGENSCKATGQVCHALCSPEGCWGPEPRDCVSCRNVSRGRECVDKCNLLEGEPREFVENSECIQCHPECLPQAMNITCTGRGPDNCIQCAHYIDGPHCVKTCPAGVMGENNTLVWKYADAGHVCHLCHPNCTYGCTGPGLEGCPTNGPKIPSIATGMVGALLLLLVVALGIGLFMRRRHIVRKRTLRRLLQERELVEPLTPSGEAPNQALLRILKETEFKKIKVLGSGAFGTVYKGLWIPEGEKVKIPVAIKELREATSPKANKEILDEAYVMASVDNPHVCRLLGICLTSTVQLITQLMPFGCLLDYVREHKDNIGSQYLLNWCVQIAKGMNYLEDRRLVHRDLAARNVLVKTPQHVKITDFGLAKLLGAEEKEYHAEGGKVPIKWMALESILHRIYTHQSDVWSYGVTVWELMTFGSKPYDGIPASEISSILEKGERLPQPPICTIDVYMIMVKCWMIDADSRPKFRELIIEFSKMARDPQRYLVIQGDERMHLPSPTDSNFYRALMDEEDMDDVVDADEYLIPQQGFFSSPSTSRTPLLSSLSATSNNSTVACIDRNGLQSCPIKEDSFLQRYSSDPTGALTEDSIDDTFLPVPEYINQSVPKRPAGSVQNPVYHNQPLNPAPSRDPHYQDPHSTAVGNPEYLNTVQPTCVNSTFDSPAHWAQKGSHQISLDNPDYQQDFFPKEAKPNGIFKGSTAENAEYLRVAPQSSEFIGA

[11] = molecular target: Tyrosine-protein kinase JAK3 (Homo sapiens) (UniProt P52333); assay: Inhibition of Jak3 (unknown origin) at 10 uM after 40 mins by scintillation counting analysis
[12] = molecular target: T1, Macrophage colony-stimulating factor 1 receptor (Homo sapiens, UniProt P07333); assay: Inhibition of FMS (unknown origin) at 10 uM after 40 mins by scintillation counting analysis
T1 sequence (P07333 whole entry): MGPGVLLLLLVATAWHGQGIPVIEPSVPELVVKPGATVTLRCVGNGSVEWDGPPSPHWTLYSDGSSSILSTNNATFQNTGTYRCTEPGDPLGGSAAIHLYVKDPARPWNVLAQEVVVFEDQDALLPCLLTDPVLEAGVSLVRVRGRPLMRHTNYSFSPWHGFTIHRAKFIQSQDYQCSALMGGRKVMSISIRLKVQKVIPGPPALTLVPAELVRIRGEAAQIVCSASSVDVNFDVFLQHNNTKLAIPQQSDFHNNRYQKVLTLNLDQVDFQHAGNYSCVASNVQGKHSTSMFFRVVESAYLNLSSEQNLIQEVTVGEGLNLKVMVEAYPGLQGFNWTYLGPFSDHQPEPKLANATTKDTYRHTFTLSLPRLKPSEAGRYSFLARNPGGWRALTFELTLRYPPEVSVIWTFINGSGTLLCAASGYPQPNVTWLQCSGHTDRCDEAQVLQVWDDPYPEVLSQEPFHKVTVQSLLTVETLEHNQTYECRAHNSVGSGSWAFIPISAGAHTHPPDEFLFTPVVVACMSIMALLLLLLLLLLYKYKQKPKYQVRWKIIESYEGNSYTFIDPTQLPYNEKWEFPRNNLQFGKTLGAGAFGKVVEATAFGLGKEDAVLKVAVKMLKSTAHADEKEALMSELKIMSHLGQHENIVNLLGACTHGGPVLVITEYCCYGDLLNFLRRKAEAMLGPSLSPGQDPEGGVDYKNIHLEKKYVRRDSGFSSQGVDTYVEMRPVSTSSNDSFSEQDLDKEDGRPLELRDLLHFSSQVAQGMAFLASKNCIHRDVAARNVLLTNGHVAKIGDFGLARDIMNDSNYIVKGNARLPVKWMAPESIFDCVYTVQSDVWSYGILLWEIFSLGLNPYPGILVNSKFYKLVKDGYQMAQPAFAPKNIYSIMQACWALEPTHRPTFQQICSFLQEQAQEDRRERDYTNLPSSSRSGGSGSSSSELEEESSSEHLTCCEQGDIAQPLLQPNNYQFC

[13] = molecular target: Vascular endothelial growth factor receptor 1 (Homo sapiens) (UniProt P17948); assay: Inhibition of FLT1 (unknown origin) at 10 uM after 40 mins by scintillation counting analysis
[14] = molecular target: cAMP-dependent protein kinase (PKA) (Homo sapiens) (UniProt P22694+P17612+P22612); assay: Inhibition of PKA (unknown origin) at 10 uM after 40 mins by scintillation counting analysis; type: protein assay
[15] = molecular target: Cyclin-dependent kinase 2/cyclin E (Homo sapiens) (UniProt P24864+P24941+O96020); assay: Inhibition of CDK2/cyclin E (unknown origin) at 10 uM after 40 mins by scintillation counting analysis; type: protein-complex assay
[16] = molecular target: Insulin-like growth factor 1 receptor (Homo sapiens) (UniProt P08069); assay: Inhibition of IGF1R (unknown origin) at 10 uM after 40 mins by scintillation counting analysis
Insulin-like growth factor 1 receptor (Homo sapiens), sequence (P08069 31-736 limits assumed): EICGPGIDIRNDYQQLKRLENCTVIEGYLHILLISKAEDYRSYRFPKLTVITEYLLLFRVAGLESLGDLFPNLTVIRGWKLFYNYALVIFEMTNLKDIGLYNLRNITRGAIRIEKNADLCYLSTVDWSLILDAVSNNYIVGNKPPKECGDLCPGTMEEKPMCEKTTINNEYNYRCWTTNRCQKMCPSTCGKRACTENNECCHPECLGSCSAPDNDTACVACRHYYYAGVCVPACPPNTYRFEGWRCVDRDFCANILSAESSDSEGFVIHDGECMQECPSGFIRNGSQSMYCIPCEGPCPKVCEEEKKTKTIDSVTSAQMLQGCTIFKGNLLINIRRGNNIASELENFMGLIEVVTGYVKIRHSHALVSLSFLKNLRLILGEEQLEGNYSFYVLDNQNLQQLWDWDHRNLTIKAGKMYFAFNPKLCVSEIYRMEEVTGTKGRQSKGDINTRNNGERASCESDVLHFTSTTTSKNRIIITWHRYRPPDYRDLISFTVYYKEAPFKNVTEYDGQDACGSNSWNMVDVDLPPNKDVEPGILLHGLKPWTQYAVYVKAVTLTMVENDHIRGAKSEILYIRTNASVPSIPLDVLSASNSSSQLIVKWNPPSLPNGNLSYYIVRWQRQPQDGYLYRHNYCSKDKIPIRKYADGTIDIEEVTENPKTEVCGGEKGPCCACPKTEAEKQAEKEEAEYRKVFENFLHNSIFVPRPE
Insulin-like growth factor 1 receptor (Homo sapiens), sequence (P08069 741-1367 limits assumed): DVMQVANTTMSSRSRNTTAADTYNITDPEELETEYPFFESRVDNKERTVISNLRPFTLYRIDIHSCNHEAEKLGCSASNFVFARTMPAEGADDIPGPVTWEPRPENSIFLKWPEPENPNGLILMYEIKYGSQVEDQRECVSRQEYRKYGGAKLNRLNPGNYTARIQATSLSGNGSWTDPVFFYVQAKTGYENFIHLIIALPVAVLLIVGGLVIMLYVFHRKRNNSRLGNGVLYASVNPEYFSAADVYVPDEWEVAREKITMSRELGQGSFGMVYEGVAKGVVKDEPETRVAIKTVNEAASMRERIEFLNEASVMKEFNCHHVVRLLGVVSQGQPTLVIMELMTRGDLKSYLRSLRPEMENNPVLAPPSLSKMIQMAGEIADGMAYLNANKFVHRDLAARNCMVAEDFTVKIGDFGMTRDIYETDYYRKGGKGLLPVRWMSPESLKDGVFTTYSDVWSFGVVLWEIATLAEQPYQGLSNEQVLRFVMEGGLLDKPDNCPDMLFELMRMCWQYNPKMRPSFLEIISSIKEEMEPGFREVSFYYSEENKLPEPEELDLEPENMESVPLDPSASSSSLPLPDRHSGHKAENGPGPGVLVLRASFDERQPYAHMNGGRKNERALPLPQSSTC

[17] = molecular target: Protein kinase C (PKC) (Homo sapiens) (UniProt O94806+P41743+P17252+P05129+Q05655+P05771+Q05513+Q02156+P24723+Q15139+Q04759); assay: Inhibition of PKC (unknown origin) at 10 uM after 40 mins by scintillation counting analysis
[18] = molecular target: Fibroblast growth factor receptor 3 (Homo sapiens) (UniProt P22607); assay: Inhibition of FGFR3 (unknown origin) at 10 uM after 40 mins by scintillation counting analysis
[19] = molecular target: Fibroblast growth factor receptor 2 (Homo sapiens) (UniProt P21802); assay: Inhibition of FGFR2 (unknown origin) at 10 uM after 40 mins by scintillation counting analysis
[20] = molecular target: Proto-oncogene tyrosine-protein kinase Src (Homo sapiens) (UniProt P12931); assay: Inhibition of c-SRC (unknown origin) at 10 uM after 40 mins by scintillation counting analysis
[21] = molecular target: Mitogen-activated protein kinase 8 (Homo sapiens) (UniProt P45983); assay: Inhibition of JNK1 (unknown origin) at 10 uM after 40 mins by scintillation counting analysis
[22] = molecular target: Mitogen-activated protein kinase 3 (Homo sapiens) (UniProt P27361); assay: Inhibition of ErK1 (unknown origin) at 10 uM after 40 mins by scintillation counting analysis
[23] = molecular target: Mitogen-activated protein kinase 10 (Homo sapiens) (UniProt P53779); assay: Inhibition of JNK3 (unknown origin) at 10 uM after 40 mins by scintillation counting analysis
[24] = molecular target: Glycogen synthase kinase-3 beta (Homo sapiens) (UniProt P49841); assay: Inhibition of GSK3b (unknown origin) at 10 uM after 40 mins by scintillation counting analysis
[25] = molecular target: Serine/threonine-protein kinase mTOR (Homo sapiens, UniProt P42345); assay: Inhibition of mTOR (unknown origin) at 10 uM after 40 mins by scintillation counting analysis
[26] = species: Homo sapiens; assay: Inhibition of Pi3K (unknown origin) at 10 uM after 40 mins by scintillation counting analysis
[27] = molecular target: Serine/threonine-protein kinase B-raf (Homo sapiens, UniProt P15056); assay: Inhibition of BRAF (unknown origin) at 10 uM after 40 mins by scintillation counting analysis
Serine/threonine-protein kinase B-raf, sequence (P15056 whole entry): as the sequence (P15056 whole entry V600E) above, with E600V counted along it

[28] = molecular target: Vascular endothelial growth factor receptor 3 (Homo sapiens) (UniProt P35916); assay: Inhibition of FLT4 (unknown origin) at 10 uM after 40 mins by scintillation counting analysis
[29] = molecular target: Focal adhesion kinase 1 (Homo sapiens) (UniProt Q05397); assay: Inhibition of FAK (unknown origin) at 10 uM after 40 mins by scintillation counting analysis
[30] = molecular target: Hepatocyte growth factor receptor (Homo sapiens) (UniProt P08581); assay: Inhibition of c-MET (unknown origin) at 10 uM after 40 mins by scintillation counting analysis
[31] = molecular target: Platelet-derived growth factor receptor beta (Homo sapiens) (UniProt P09619); assay: Inhibition of PDGFRbeta (unknown origin) at 10 uM after 40 mins by scintillation counting analysis
[32] = molecular target: RAF proto-oncogene serine/threonine-protein kinase (Homo sapiens, UniProt P04049); assay: Inhibition of RAF1 (unknown origin) at 10 uM after 40 mins by scintillation counting analysis
[33] = molecular target: RAC-alpha serine/threonine-protein kinase (Homo sapiens) (UniProt P31749); assay: Inhibition of AKT1 (unknown origin) at 10 uM after 40 mins by scintillation counting analysis
[34] = molecular target: T1, Macrophage colony-stimulating factor 1 receptor; assay: Inhibition of FMS (unknown origin) after 40 mins by scintillation counting analysis
[35] = molecular target: Macrophage-stimulating protein receptor (Homo sapiens) (UniProt Q04912); assay: Inhibition of RON (unknown origin) at 10 uM after 40 mins by scintillation counting analysis
[36] = molecular target: Tyrosine-protein kinase ITK/TSK (Homo sapiens) (UniProt Q08881); assay: Inhibition of ITK (unknown origin) at 10 uM after 40 mins by scintillation counting analysis
Tyrosine-protein kinase ITK/TSK (Homo sapiens), sequence (Q08881 whole entry): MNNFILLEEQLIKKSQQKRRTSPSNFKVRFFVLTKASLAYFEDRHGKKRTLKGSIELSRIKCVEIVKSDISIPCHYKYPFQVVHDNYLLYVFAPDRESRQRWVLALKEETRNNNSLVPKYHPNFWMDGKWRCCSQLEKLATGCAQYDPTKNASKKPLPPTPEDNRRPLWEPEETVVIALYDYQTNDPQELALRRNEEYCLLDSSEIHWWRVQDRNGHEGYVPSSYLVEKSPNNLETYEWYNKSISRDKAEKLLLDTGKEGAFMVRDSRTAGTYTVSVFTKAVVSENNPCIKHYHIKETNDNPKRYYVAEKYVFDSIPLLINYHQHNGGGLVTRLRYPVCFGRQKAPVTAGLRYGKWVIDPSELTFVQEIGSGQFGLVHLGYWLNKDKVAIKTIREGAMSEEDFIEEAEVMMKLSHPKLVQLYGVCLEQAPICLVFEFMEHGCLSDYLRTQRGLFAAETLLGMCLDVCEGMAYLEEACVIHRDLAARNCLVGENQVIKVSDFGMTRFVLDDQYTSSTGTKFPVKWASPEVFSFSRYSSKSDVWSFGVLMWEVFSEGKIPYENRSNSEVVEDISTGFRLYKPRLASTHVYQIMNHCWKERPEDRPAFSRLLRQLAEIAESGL

## Cc1ccccc1C(=O)Nc1cnoc1C
[1]
  inhibition: inactive
[2]
  inhibition: inactive
[3]
  inhibition: inactive
[4]
  inhibition: inactive
[5]
  inhibition: inactive
[6]
  inhibition: inactive
[7]
  inhibition: inactive
[8]
  inhibition: inactive
[9]
  GI50: Active
[10]
  inhibition: inactive
[11]
  inhibition: inactive
[12]
  inhibition: inactive
[13]
  inhibition: inactive
[14]
  inhibition: inactive
[15]
  inhibition: inactive
[16]
  inhibition: inactive
[17]
  inhibition: inactive
[18]
  inhibition: inactive
[19]
  inhibition: inactive
[20]
  inhibition: inactive
[21]
  inhibition: inactive
[22]
  inhibition: inactive
[23]
  inhibition: inactive
[24]
  inhibition: inactive
[25]
  inhibition: inactive
[26]
  inhibition: inactive
[27]
  inhibition: inactive
[28]
  inhibition: inactive
[29]
  inhibition: inactive
[30]
  inhibition: inactive
[31]
  inhibition: inactive
[32]
  inhibition: inactive
[33]
  inhibition: inactive
[34]
  IC50: 216 nM
[35]
  inhibition: inactive
[36]
  inhibition: inactive
